# Source: ChEMBL document CHEMBL3994561 (Medchemcomm, 2016)
# Calls of active or inactive are those of the source. The calls are words filed in the database; no cut-off is given here.
# Legend:
# HL-60 = experiment: Cytotoxicity against human HL60 cells after 48 hrs by MTT assay; type: functional, cell-based; conditions: HL-60, 48 h
# NALM-6 = experiment: Cytotoxicity against human NALM6 cells after 48 hrs by MTT assay; type: functional, cell-based; conditions: NALM-6, 48 h
# MCF7 [1] = experiment: Cytotoxicity against human MCF7 cells after 48 hrs by MTT assay; type: functional, cell-based; conditions: MCF7, 48 h
# HUVEC = experiment: Cytotoxicity against human HUVEC cells after 48 hrs by MTT assay; type: cell-based
# MCF-10A = experiment: Cytotoxicity against human MCF10A cells after 48 hrs by MTT assay; type: cell-based
# MCF7 [2] = experiment: Induction of apoptosis in human MCF7 cells assessed as viable cells at 12.76 +/- 0.46 uM after 24 hrs by annexin V-FITC/propidium iodide staining-based flow cytometric method (reference value: 83.4%); type: functional
# MCF7 [3] = experiment: Induction of apoptosis in human MCF7 cells assessed as early apoptotic cells at 12.76 +/- 0.46 uM after 24 hrs by annexin V-FITC/propidium iodide staining-based flow cytometric method (reference value: 1.7%); type: functional
# MCF7 [4] = experiment: Induction of apoptosis in human MCF7 cells assessed as late apoptotic cells at 12.76 +/- 0.46 uM after 24 hrs by annexin V-FITC/propidium iodide staining-based flow cytometric method (reference value: 10.1 +/- 0.2%); type: functional
# MCF7 [5] = experiment: Induction of apoptosis in human MCF7 cells assessed as necrotic cells at 12.76 +/- 0.46 uM after 24 hrs by annexin V-FITC/propidium iodide staining-based flow cytometric method (reference value: 4.1%); type: functional
# MCF7 [6] = experiment: Induction of apoptosis in human MCF7 cells assessed as upregulation of caspase-3 mRNA level at 12.76 +/- 0.46 uM by quantitative real-time PCR method; type: functional, cell-based
# MCF7 [7] = experiment: Induction of apoptosis in human MCF7 cells assessed as upregulation of Bax mRNA level at 12.76 +/- 0.46 uM by quantitative real-time PCR method; type: functional, cell-based
# MCF7 [8] = experiment: Induction of apoptosis in human MCF7 cells assessed as downregulation of Bcl-2 mRNA level at 12.76 +/- 0.46 uM by quantitative real-time PCR method; type: functional, cell-based
# MCF7 [9] = experiment: Cell cycle arrest in human MCF7 cells assessed as accumulation at sub G0/G1 phase at 12.76 +/- 0.46 uM after 24 hrs by propidium iodide staining-based flow cytometric analysis (reference value: 1.3%); type: functional
# MCF7 [10] = experiment: Disruption of mitochondrial membrane potential in human MCF7 cells assessed as collapse of the mitochondrial membrane potential at 12.76 +/- 0.46 uM after 24 hrs by JC10 staining-based flow cytometric method (reference value: 23.9%); type: functional
# MCF7 [11] = experiment: Disruption of mitochondrial membrane potential in human MCF7 cells assessed as intact mitochondrial membrane at 12.76 +/- 0.46 uM after 24 hrs by JC10 staining-based flow cytometric method (reference value: 76.1%); type: functional
# MCF7 [12] = experiment: Cell cycle arrest in human MCF7 cells assessed as accumulation at G0/G1 phase at 12.76 +/- 0.46 uM after 24 hrs by propidium iodide staining-based flow cytometric analysis (reference value: 52.2%); type: functional
# MCF7 [13] = experiment: Cell cycle arrest in human MCF7 cells assessed as accumulation at S phase at 12.76 +/- 0.46 uM after 24 hrs by propidium iodide staining-based flow cytometric analysis (reference value: 25.9%); type: functional
# MCF7 [14] = experiment: Cell cycle arrest in human MCF7 cells assessed as accumulation at G2/M phase at 12.76 +/- 0.46 uM after 24 hrs by propidium iodide staining-based flow cytometric analysis (reference value: 20.3%); type: functional
# MCF7 [15] = experiment: Cytotoxicity against human MCF7 cells after 24 hrs by MTT assay; type: functional, cell-based; conditions: MCF7, 24 h
# [16] = Selectivity index, ratio of IC50 for human MCF10A cells to IC50 for human MCF7 cells; type: functional
# [17] = Selectivity index, ratio of IC50 for human MCF10A cells to IC50 for human NALM6 cells; type: functional
# [18] = Selectivity index, ratio of IC50 for human MCF7 cells to IC50 for human MCF10A cells; type: functional
Structure (SMILES),IC50 (HL-60) [µM],IC50 (NALM-6) [µM],IC50 (MCF7 [1]) [µM],also measured
C=C1C(=O)Oc2ccccc2[C@H]1[C@@H]1CCCC1=O,578,488,14.7,
C=C1C(=O)Oc2ccccc2[C@H]1[C@@H]1CCCCC1=O,629,85.6,8,
C=C1C(=O)Oc2c(OC)cccc2C1CC(C)=O (configuration not stated),90.9,73.2,10.5,
C=C1C(=O)Oc2ccccc2[C@H]1[C@@H]1Cc2ccccc2C1=O,247,705,17,
C=C1C(=O)Oc2ccc(Cl)cc2C1CC(C)=O (configuration not stated),289,427,16.3,
C=C1C(=O)Oc2ccccc2C1CC(C)=O (configuration not stated),84.1,94.4,11.5,
C=C1C(=O)Oc2c(OC)cccc2[C@H]1[C@@H]1CCc2cc(OC)ccc2C1=O (relative stereo),3.61,0.87,17.5,IC50 (HUVEC): 4.87 µM; IC50 (MCF-10A): 13.6 µM
C=C1C(=O)Oc2ccc(Cl)cc2[C@H]1[C@@H]1Cc2ccccc2C1=O (relative stereo),7.48,6.56,15.2,
C=C1C(=O)Oc2c(OC)cccc2[C@H]1[C@@H]1CCCCC1=O (relative stereo),6.06,4.14,8.75,Activity (MCF7 [2]): 64%; IC50 (HUVEC): 4.7 µM; IC50 (MCF-10A): 16.4 µM; Activity (MCF7 [3]): 2.2%; Activity (MCF7 [4]): 28.7%; Activity (MCF7 [5]): 5%; Activity (MCF7 [6]): Active; Activity (MCF7 [7]): Active; Activity (MCF7 [8]): Active; Activity (MCF7 [9]): 17.9%; Activity (MCF7 [10]): 52.5%; Activity (MCF7 [11]): 47.5%; Activity (MCF7 [12]): 36%; Activity (MCF7 [13]): 29.7%; Activity (MCF7 [14]): 16.5%; IC50 (MCF7 [15]): 12.8 µM; Ratio IC50 [16]: 2; Ratio IC50 [17]: 5; Ratio IC50 [18]: 5
C=C1C(=O)Oc2ccc(Cl)cc2[C@H]1[C@@H]1CCc2cc(OC)ccc2C1=O (relative stereo),5.67,1.59,77.5,
C=C1C(=O)Oc2ccc(Cl)cc2[C@H]1[C@@H]1CCCC1=O (relative stereo),514,> 1000,23,
C=C1C(=O)Oc2c(OC)cccc2[C@H]1[C@@H]1CCCC1=O (relative stereo),711,784,15,
C=C1C(=O)Oc2ccccc2[C@H]1[C@@H]1Cc2cc(OC)ccc2C1=O (relative stereo),5.48,0.65,77.6,
C=C1C(=O)Oc2ccccc2[C@H]1[C@@H]1CCc2cc(OC)ccc2C1=O (relative stereo),5.29,0.51,76.5,
C=C1C(=O)Oc2c(OC)cccc2[C@H]1[C@@H]1Cc2ccccc2C1=O (relative stereo),5.56,4.66,8.57,
C=C1C(=O)Oc2ccccc2[C@H]1[C@@H]1COCCC1=O (relative stereo),42.7,13.6,26.3,
C=C1C(=O)Oc2ccc(Cl)cc2[C@H]1[C@@H]1CCCCC1=O (relative stereo),84.9,94.6,3.45,
